Activity calls are given as the source filed them.
Experiments:
[1] = molecular target: Sphingosine 1-phosphate receptor 2 (Homo sapiens, UniProt O95136); assay: Dose Response Cell Based Assay for Agonists of the S1P2 Receptor. [Related pubchem assays: 729, 736, 843 ]; format: functional
[2] = molecular target: T1, Oxysterols receptor LXR-beta (Homo sapiens, UniProt P55055); assay: LXR agonists, Gal4 luciferase reporter, dose response, counter-screen for ssDAF-12 agonist project, cell-based, luminescence, HEK293, S. stercoralis campaign (AID 720737); format: functional; conditions: read-out: IC50 (the source's name)
T1 sequence (P55055 whole entry): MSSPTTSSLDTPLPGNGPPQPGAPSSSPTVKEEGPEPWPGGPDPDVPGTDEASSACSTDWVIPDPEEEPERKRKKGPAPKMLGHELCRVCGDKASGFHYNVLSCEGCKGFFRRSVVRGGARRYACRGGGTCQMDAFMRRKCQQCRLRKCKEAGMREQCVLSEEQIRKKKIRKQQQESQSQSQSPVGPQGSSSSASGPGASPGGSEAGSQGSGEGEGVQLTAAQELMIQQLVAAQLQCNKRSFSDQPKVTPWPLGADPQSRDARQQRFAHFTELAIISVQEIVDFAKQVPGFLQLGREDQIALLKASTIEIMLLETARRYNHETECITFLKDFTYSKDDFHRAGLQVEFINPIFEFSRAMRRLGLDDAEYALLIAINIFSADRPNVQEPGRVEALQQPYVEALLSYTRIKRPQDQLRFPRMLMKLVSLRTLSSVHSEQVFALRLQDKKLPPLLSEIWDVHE

[3] = Luminescence-based cell-based high throughput dose response assay to identify activators of the DAF-12 from the parasite S. stercoralis (ssDAF-12).; format: functional
[4] = Luminescence Cell-Based Dose Confirmation HTS to Identify Activators of 5'UTR Stem-Loop Driven Alpha-Synuclein mRNA Translation in H4 Neuroglioblastoma Cells. [Related pubchem assays: 1829 (Project Summary), 1814 (Primary HTS)]; format: functional
[5] = molecular target: T1, Oxysterols receptor LXR-beta; format: functional, cell-based
H4 = assay: Luminescence Cell-Based Dose Response HTS to Identify Activators of 5'UTR Stem-Loop Driven Prion Protein mRNA Translation in H4 Neuroglioblastoma Cells. [Related pubchem assays: 1829 (Project Summary), 1814 (Primary HTS)]; format: functional; conditions: Homo sapiens
[6] = viability loss in HepG2 liver cells – cell-based, ATP luminescence, cherry-pick, set 6, cytotoxicity control, dose response (AID 1053125); format: functional
[7] = Luminescence Cell-Based Dose Response HTS to Identify Activators of Luciferase Translation or Activity in H4 […] Cells. [Related pubchem assays: 1829 (Project Summary), 1814 (Primary HTS)]; format: functional
Vero [8] = assay: mammalian cell viability reduction – secondary assay, cytotoxicity control for West Nile virus antiviral project, dose response (AID 1650); format: functional; conditions: Chlorocebus sabaeus
Vero [9] = assay: inhibition of WNV-induced cytopathic effect – cell-based, CPE readout (AID 1621); format: functional; conditions: Chlorocebus sabaeus
Streptokinase A = molecular target: T2, Streptokinase A (Streptococcus pyogenes serotype M1, UniProt P10520); assay: viability-normalized secreted streptokinase activity reduction – plasminogen activation absorbance, OD405, dose response (AID 1914); format: functional, Streptococcus pyogenes M1 GAS;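 also: secreted streptokinase activity via plasminogen activation per viability signal from cell pellet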
T2 sequence (P10520 whole entry): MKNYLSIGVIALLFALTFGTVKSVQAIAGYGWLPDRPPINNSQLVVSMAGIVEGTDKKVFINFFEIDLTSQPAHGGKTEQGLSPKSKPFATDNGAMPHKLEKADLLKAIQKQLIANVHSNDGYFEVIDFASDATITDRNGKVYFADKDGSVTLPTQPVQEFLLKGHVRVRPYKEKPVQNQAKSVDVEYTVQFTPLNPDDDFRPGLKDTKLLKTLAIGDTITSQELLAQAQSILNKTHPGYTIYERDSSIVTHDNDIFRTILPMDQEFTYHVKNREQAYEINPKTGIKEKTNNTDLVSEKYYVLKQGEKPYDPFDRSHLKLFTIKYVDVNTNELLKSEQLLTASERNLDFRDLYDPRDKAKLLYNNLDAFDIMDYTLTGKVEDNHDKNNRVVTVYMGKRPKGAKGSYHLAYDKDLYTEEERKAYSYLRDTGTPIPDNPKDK

[10] = tested on: Streptococcus sp. 'group A'; assay: Streptococcus pyogenes SK(-)GAS viability under kanamycin – luminescence, BacTiterGlo, confirmation, counter-screen for streptokinase expression inhibitor project, dose response (AID 1900); format: functional, organism-based
Ephrin type-A receptor 4 = Ephrin type-A receptor 4 (Mus musculus, UniProt Q03137); assay: EphA4 ligand-binding antagonists – biochemical, colorimetric, mouse EphA4, primary screen (AID 689); format: functional
Chain of Ephrin type-A receptor 4 (Q03137 whole entry): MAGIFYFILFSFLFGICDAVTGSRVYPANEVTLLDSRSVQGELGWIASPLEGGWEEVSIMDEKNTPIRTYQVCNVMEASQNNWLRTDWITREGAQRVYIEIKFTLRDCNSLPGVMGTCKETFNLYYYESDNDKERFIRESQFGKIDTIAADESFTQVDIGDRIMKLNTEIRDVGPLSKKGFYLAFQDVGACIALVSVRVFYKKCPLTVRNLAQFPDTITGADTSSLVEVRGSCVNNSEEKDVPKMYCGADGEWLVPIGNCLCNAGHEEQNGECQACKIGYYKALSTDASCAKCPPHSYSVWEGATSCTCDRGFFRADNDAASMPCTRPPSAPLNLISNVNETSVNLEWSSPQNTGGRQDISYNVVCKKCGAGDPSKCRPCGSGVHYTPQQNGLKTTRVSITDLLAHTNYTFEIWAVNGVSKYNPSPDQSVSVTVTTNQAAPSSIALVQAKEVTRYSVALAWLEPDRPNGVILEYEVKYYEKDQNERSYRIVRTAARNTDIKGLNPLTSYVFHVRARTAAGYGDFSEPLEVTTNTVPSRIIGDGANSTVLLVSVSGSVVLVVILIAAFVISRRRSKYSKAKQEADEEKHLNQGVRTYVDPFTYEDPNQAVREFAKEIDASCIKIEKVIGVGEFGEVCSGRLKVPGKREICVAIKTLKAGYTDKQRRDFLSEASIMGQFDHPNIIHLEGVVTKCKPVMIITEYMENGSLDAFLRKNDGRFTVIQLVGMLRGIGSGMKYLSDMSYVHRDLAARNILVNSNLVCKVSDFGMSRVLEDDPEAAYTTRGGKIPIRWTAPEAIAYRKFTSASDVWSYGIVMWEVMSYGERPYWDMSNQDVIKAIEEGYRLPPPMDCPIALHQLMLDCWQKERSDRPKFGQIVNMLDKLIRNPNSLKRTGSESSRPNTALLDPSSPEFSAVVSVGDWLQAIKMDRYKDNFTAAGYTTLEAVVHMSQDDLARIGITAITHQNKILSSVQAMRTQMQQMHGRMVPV

Streptococcus = assay: GAS UMAA2166 growth inhibition – luminescence, BacTiterGlo, counter-screen for streptokinase expression inhibitor project, dose response (AID 1915); format: functional, organism-based;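 also: potency for reduction of bacterial viability or growth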
[11] = molecular target: Voltage-gated inwardly rectifying potassium channel KCNH2 (Homo sapiens, UniProt Q12809); assay: concentration-dependent hERG rescue from blockers – cell-based, thallium flux, dose response (AID 2121); format: ADME
Chain of Voltage-gated inwardly rectifying potassium channel KCNH2 (Q12809 whole entry): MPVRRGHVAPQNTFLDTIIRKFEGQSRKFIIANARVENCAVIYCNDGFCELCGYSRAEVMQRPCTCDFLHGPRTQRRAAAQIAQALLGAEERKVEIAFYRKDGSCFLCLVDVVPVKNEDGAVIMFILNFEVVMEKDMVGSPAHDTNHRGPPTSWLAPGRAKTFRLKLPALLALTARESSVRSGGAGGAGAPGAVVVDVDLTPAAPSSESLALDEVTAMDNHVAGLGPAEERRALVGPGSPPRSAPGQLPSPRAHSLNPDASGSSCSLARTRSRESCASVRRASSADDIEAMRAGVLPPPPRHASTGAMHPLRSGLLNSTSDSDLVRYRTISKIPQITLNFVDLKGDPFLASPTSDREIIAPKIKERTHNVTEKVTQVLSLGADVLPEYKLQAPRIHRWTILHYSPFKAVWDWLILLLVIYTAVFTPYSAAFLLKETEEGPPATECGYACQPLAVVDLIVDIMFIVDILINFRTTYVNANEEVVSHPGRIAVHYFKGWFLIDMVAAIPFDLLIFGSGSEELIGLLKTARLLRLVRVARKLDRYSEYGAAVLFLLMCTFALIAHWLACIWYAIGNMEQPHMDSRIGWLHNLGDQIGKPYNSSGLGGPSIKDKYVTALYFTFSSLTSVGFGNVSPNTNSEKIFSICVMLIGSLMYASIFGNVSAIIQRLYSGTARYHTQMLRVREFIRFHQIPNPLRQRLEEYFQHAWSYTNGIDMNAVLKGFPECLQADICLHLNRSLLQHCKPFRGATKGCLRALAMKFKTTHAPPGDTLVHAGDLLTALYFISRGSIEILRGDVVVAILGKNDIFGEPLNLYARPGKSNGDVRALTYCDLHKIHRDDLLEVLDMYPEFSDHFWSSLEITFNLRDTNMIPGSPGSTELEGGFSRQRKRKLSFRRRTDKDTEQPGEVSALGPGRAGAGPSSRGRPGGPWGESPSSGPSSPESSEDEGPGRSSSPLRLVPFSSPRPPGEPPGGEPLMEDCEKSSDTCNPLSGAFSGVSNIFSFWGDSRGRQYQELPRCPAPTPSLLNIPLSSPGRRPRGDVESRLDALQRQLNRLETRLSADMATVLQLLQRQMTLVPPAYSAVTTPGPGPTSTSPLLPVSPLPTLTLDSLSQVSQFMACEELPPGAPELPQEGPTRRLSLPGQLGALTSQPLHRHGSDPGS

[12] = viability of uninfected HEp-2 cells – cell-based, HTS, cytotoxicity control for RSV inhibitor project, dose response (AID 2410); format: functional; conditions: human respiratory syncytial virus
[13] = molecular target: T1, Oxysterols receptor LXR-beta; format: functional, cell-based; remark: listed apart in the source
NADPH oxidase 1 = molecular target: T3, NADPH oxidase 1 (Homo sapiens, UniProt Q9Y5S8); assay: Late-stage luminescence-based cell-based dose response assay to identify inhibitors of NADPH oxidase 1 (NOX1): Synthesized analogs 2.; format: functional
T3 sequence (Q9Y5S8 whole entry): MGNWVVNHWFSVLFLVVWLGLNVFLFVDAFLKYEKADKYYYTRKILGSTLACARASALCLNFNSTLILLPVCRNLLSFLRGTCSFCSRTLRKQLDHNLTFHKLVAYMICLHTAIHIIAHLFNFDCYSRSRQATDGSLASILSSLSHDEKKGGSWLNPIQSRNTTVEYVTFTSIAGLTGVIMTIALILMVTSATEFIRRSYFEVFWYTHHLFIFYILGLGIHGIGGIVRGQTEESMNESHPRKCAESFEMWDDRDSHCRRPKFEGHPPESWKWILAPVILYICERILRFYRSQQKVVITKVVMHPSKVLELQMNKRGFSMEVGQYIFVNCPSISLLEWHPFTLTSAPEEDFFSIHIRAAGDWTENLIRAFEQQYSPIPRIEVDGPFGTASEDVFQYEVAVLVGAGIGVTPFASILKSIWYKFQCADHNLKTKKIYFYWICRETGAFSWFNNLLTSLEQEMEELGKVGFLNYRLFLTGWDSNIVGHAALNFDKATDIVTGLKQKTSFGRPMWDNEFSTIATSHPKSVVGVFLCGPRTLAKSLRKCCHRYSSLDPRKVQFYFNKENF

Chain of Sphingosine 1-phosphate receptor 2 (O95136 whole entry, the tested form may be a part): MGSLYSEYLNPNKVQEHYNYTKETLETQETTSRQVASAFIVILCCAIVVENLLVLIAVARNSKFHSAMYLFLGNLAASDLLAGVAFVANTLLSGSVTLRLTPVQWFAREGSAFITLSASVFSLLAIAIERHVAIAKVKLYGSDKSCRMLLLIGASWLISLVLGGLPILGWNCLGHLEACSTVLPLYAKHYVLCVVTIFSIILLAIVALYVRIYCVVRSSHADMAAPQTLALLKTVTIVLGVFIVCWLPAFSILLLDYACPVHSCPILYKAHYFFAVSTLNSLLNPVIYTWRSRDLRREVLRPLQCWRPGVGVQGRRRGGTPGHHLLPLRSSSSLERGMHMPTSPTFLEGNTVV

With `Cc1ccc(C2CC(=O)c3cnc(N4CCc5ccccc5C4)nc3C2)cc1` (stereo not given) the EC50 [1] was > 50 µM (not active).

In the case of `NC(=O)c1ccccc1NC(=O)c1ccc2ccccc2c1`, the EC50 [2] is reported as > 67.6 µM (inactive) and the IC50 [3] is reported as > 67.6 µM (inactive).

In the case of `Cc1cc(-c2nc3cccnc3s2)ccc1NS(=O)(=O)c1cccs1`, the EC50 [4] is reported as 9.73 µM (active), the EC50 [5] is reported as > 67.5 µM (inactive) and the EC50 (H4) is reported as 0.197 µM (active). For the same compound, the AC50 [6] was 7.51 µM (active) and the EC50 [7] was 30.8 µM (active).

In the case of `CCN(CC)S(=O)(=O)c1ccc2nc(O)c3ccccc3c2c1`, the CC50 (Vero [8]) is reported as 38.9 µM (active) and the IC50 (Vero [9]) is reported as 45.5 µM (active).

With `CCC(C)COC(=O)C(C#N)c1nc2ccccc2nc1N1CCCCC1` (stereo not given) the EC50 (Streptokinase A) was > 150 µM (not active), the EC50 [10] was 41.9 µM (active) and the IC50 (Ephrin type-A receptor 4) was 17.5 µM (active). For the same compound, the EC50 (Streptococcus) was 150 µM (active).

For `CCOC(=O)c1sc2nc(Cc3ccc(Cl)cc3)[nH]c(=S)c2c1C`, the EC50 (Streptokinase A) was > 150 µM (not active) and the EC50 [11] was 0.92 µM (active).

With `COc1ccccc1Nc1nc(-c2cccs2)cs1` the CC50 [12] was 47.2 µM (active), the EC50 [13] was > 67.5 µM (inactive) and the EC50 (cells) was > 67.5 µM (inactive).

In the case of `CN1c2ccccc2Sc2cc(NC(=O)c3ccc(C(=O)c4ccccc4)cc3)ccc21`, the IC50 (NADPH oxidase 1) is reported as > 50 µM (not active).
